Laboratory results: patent US20050069544A1, “Pharmaceutical composition and a method of treatment” (priority 1998, published 2005)

System: PBMC from RhD alloimmunised donors
Assay: Cell proliferation assay (3H-thymidine) of PBMC from RhD alloimmunised donors stimulated with RhD peptides
Type: cell-based, human
Settings: peptide 20 μg/ml, 5 days
Protocol: Five complete panels of 68 15-mer peptides, with 5 or 10 amino acid overlaps, were synthesized (Multiple Peptide Service, Cambridge Research Biochemicals, Cheshire, UK and Dept. Of Biochemistry, University of Bristol, UK), corresponding to the sequences of the 30 kD Rh proteins associated with expression of the RhD or RhcE/ce/Ce/CE blood group antigens respectively (Tables 1 to 5). An additional three peptide sequences is added to the panel of RhD peptides to account for the Ile to Met substitution described earlier (numbered from 69 to 71). The amino acid sequences for each of these proteins were deduced from cDNA analyses (FIG. 1). In order to ensure purity, each panel was synthesized by fluorenylmethoxycarbonyl chemistry on resin using a base-labile linker, rather than by conventional pin technology, and randomly selected peptides were screened for purity by HPLC and amino acid analysis.
Peripheral blood mononuclear cells (PBMC) from donors or patients were separated from fresh blood samples using Ficoll-Hypaque. The donors and patients had become alloimmunised with RhD-positive blood either through pregnancy, a blood transfusion or through immunization with the relevant blood.
(§1) PBMC were cultured in 100 μl volumes in microtitre plates at a concentration of 1.25×10^6 cells/ml in an Alpha Modification of Eagle's Medium (ICN Flow, Bucks UK) supplemented with 5% autologous serum, 4 mM L-Glutamine (Gibco, Paisley, UK), 100 U/ml sodium benzylpenicillin G (Sigma), 100 μg/ml streptomycin sulphate (Sigma), 5×10^−5M 2-mercaptoethanol (Sigma) and 20 mM HEPES pH7,2 (Sigma). All plates were incubated at 37° C. in a humidified atmosphere of 5% CO2/95% air. The cell proliferation in cultures was estimated from the incorporation of ^3H-Thymidine in triplicate wells 5 days after stimulation with antigen as described previously. Proliferation results are presented either as the mean CPM+/−SD of the triplicate samples, or as a stimulation index (SI), expressing the ratio of mean CPM in stimulated versus unstimulated control cultures. An S1>3 with CPM>1000 is interpreted as representing a positive response.

Sequence | proliferative T-cell response to RhD peptides
CLPLWALTLEAALIL (Residues 12-26 RhD; listed as Homo sapiens) [peptide 2] | most commonly targeted
HSWSSVAFNLFMLAL (Residue 72-86 RhD; listed as Homo sapiens) [compound 10] | most commonly targeted
LLTGLLLNLKIWKAP (Residue 382-396 RhD; listed as Homo sapiens) [compound 63] | most commonly targeted
SAVLAGGVAVGTSCH (Residue 272-286 RhD; listed as Homo sapiens) [peptide 46] | most commonly targeted
VTALGNLRMVISNIF (Residue 147 - 161 RhD; listed as Homo sapiens) [compound 22] | most commonly targeted

System: T-cells from AIHA patients
Assay: Cell proliferation assay of PBMC/T-cells from autoimmune haemolytic anaemia patients
Type: cell-based, human
Settings: AIHA patients; FIG. 17A
Protocol: as §1
The experiments mentioned in Example 1.1 were repeated using blood from subjects suffering from autoimmune haemolytic anaemia.
These experiments can be carried out using other rhesus proteins, such as RhcE, Rhce, RhCe or RhCE protein. T-cells from RhD-negative subjects suffering AIHA were tested with the panel of ce peptides (Table 3).

Sequence | proliferative T-cell response to RhD peptides
AALILLFYFFTHYDA (Residue 22- 36 RhD; listed as Homo sapiens) [compound 3] | exhibited a proliferative response
ATIPSLSAMLGALFL (Residue 202-216 RhD; listed as Homo sapiens) [compound 33] | exhibited a proliferative response
CLPLWALTLEAALIL (Residues 12-26 RhD; listed as Homo sapiens) [peptide 2] | exhibited a proliferative response
GKVNLAQLVVMVLVE (Residue 132-146 RhD; listed as Homo sapiens) [compound 20] | exhibited a proliferative response
GLISVGGAKYLPGCC (Residue 302-316 RhD; listed as Homo sapiens) [compound 50] | exhibited a proliferative response
GTSCHLIPSPWLAMV (Residue 282-296 RhD; listed as Homo sapiens) [compound 47] | exhibited a proliferative response
LAIVIALTSGLLTGL (Residue 372-386 RhD; listed as Homo sapiens) [compound 62] | exhibited a proliferative response

Same assay, conditions: RhD-negative AIHA subjects; FIG. 17B

Sequence | proliferative T-cell response to ce peptides
FSLLGLLGEITYIVL (Residue 332-346 Rhce; listed as Homo sapiens) [compound 195] | exhibited a proliferative response
GTSCHLIPSPWLAMV (Residue 282-296 Rhce; listed as Homo sapiens) [compound 186] | exhibited a proliferative response
KGLVASYQVGQDLTV (Residue 42-56 Rhce; listed as Homo sapiens) [compound 144] | exhibited a proliferative response
THYDASLEDQKGLVA (Residues 32-46 Rhce; listed as Homo sapiens) [compound 143] | exhibited a proliferative response
TVAWCLPKPLPKGTE (Residue 182-196 Rhce; listed as Homo sapiens) [compound 168] | exhibited a proliferative response
